Test results taken from publication PMC7482436, “Optopharmacology reveals a differential contribution of native GABAA receptors to dendritic and somatic inhibition using azogabazine” (Neuropharmacology, 2020).
Read-outs that look alike come from different tables or passages of the source.

Assays:
cerebellar granule cells [1] = experiment: Voltage clamp of GABA-mediated IPSCs in cultured cerebellar granule cells with membrane-delimited UV spot; format: cell-based, Sprague Dawley rats; settings: for mean IPSC amplitude recovered with UV light / IPSC frequency normalised to 100 μm^2 membrane area: 1 μM azogabazine; for mean IPSC amplitude recovered with UV light: −60 mV, n = 12
[2] = 1H NMR of cis:trans isomer ratio and isomer stability under different light conditions; format: physicochemical
Description: For most of the study azogabazine was kept in darkness to ensure a stock of near-100% trans-isomer. Unless stated otherwise, experiments were performed in near-darkness (under red light) when making azogabazine stocks (1 mM stock solution in DMSO), and when pre-exposing stock solutions to UV or blue light using wavelength specific LEDs. Pre-exposure of azogabazine (stock) to UV or blue light was undertaken by positioning a UV (365 nm) or blue (470 nm) OptoLED (Cairn Research Ltd, Faversham, UK) 2–3 mm above a 500 μl droplet on parafilm and exposing for 2 min at maximum light intensity to ensure attainment of equilibrium between cis and trans isomers. The UV LED was operated at 1.2 A to achieve a light intensity output at the surface of the droplet of 5.3 mW. By comparison, the Blue LED was run at 0.9 A for a light intensity output of 8.1 mW at the surface of the droplet.
To physically assess the photo-conversion efficiency between the cis and trans isomers we determined the proton (^1H)-NMR spectra for azogabazine ([…]) in deuterated DMSO under different light conditions. Initially, azogabazine was retained in complete darkness for >14 days and then stored under similar dark conditions. This drove the cis:trans equilibrium almost completely towards the more thermodynamically stable trans isomer (Fig. 1C). […] By integrating the ^1H NMR spectra, long-term darkness produced ~100% of trans-azogabazine, whereas the UV (365 nm) exposure produced an equilibrium of ~85% cis to 15% trans isomers. […] Thus, switching the wavelength of light produced substantive photoisomerisation of azogabazine.
Fig. 2 Azogabazine isomerization and isomer stability. (A), Stability plot for the cis-isomer for non-dark adapted azogabazine samples exposed to different wavelengths of light: λ 365, 405, 470, 530, 565 nm, and near-infrared (NR), prior to ^1H NMR. […] A long (60 s) period of UV-exposure was needed to reach a maximal equilibrium conversion ratio of ~85 : 15% for cis: trans isomers. […] (B), The stability of a UV exposed and established cis: trans ratio is dependent on subsequent storage conditions. If the UV-exposed sample is subsequently kept in ambient light (blue line), the cis:trans ratio changes over ~ 2–4 h towards ~25% cis: 75% trans remaining stable over 10 days (dashed blue line). By contrast, the UV-exposed sample remained stable (~85% cis: 15% trans) over 24 h if subsequently kept in darkness (red line). However, over 10 days, conversion to a predominant trans-form was evident (dashed red line). Finally, when a sample which had been kept in ambient light (~25% cis: 75% trans) was then placed and stored in darkness, it remained stable over 24 h (green line) but slowly converted again to the trans form over 10 days (dashed green line).
To investigate the dynamic relationship between the two azogabazine isomers, we investigated the effect of azogabazine in solution under conditions that result in three different ratios of trans: cis isomers. These included: a dark-adapted solution (trans 100: cis 0%); one pre-exposed for 60 s to blue light (trans 75: cis 25%); and a third exposed for the same duration to UV light (trans 15: cis 85%). […] All subsequent experiments were performed in near-darkness and within 3 h after the trans: cis ratios were established to ensure the stability of the isomers during experimentation. […] The later provides assurance as to the relative time stability of the cis and trans isoforms of azogabazine.

α1β2γ2L GABAARs [3] = molecular target: T1, α1β2γ2L GABAARs (Mus musculus, UniProt P62812+P63137); experiment: Whole-cell patch clamp of GABA currents, recombinant α1β2γ2L GABAARs in HEK293 cells; format: cell-based, murine; settings: for IC50: 10 μM GABA
T1 construct: expressed in transfected cells; host or cells: HEK293

α1β2γ2L GABAARs [4] = molecular target: T1, α1β2γ2L GABAARs; set-up: method as in Huckvale et al., 2016; settings: normal ambient daylight; ref Huckvale et al., 2016; cited from earlier work
cerebellar granule cells [5] = experiment: Current clamp of action potential firing in cultured cerebellar granule cells with membrane-delimited UV spot; format: cell-based, Sprague Dawley rats; settings: 1 μM azogabazine; for inhibition at 1 µM: Rattus norvegicus
Description: Dissociated cerebellar cultures were prepared from cerebellar tissue taken from postnatal day 4 (P4) Sprague Dawley rats. Tissue blocks were incubated in trypsin for 10 min (0.1% w/v), washed in Hanks Balanced Salt Solution (HBSS), and then triturated in DNase (0.05% w/v in 12 mM MgSO4). Cells were plated on poly-L-ornithine coated 22 mm glass coverslips in Basal Medium Eagle (BME) supplemented with 0.5% (w/v) glucose, 5 mg/l insulin, 5 mg/l transferrin, 5 mg/l selenium, 20 u/ml penicillin-G and 20 μg/ml streptomycin, 0.2 mM glutamine, 1.2 mM NaCl, and 5% (v/v) fetal calf serum. The neuronal culture was then allowed to develop for 7–10 days at 37 °C in humidified air with 5% CO2 before used for experiments.
To initiate photo-isomerization of azogabazine, optical light paths were used to convey UV laser (Obis [375 nm], Coherent Inc., Santa Clara, USA) or blue LED light (OptoLED [470 nm], Cairn Research Ltd, Faversham, U.K.) through a variable diaphragm (for setting the illuminated spot-diameter), and finally through a water-immersion objective (Nikon, NIR Apo 40×/0.8w) to the cells. The diaphragm was kept fully open for whole cell light exposure experiments and reduced to generate small spots (~8–12 μm) when exposing soma or proximal dendritic areas. The illuminated spot size and position could be adjusted during experiments. Whereas the blue LED could be operated at high power (8.1 mW) during experiments, the UV laser output was empirically adjusted to 2 mW (4% of maximum operating power) to avoid cell damage, but still sufficient to adequately azogabazine isomerization. To adjust the size and position of the illuminated spot, a 440 nm white LED pilot light and a 515 nm long-pass filter were used before switching to UV or blue light.
IPSCs from cerebellar granule cells were detected post-hoc using WinEDR 3.5.6, and analysed for frequency, amplitude, rise time and weighted decay tau using WinWCP 4.9.6. Action potentials from cerebellar granule cells were recorded under current-clamp and were similarly detected with WinEDR 3.5.6. Data were subjected to statistical analyses (ANOVA, paired and unpaired Student t-tests).
To assess neuronal excitability and GABA inhibition, current clamp recordings were performed from cultured granule cells to monitor action potential generation in the presence of 1 μM azogabazine before and after applying UV light.

[6] = UV 365 nm exposure for 60 s, equilibrium
[7] = blue light 470 nm for 60 s, photostationary state

T1 sequence (P62812 28-455): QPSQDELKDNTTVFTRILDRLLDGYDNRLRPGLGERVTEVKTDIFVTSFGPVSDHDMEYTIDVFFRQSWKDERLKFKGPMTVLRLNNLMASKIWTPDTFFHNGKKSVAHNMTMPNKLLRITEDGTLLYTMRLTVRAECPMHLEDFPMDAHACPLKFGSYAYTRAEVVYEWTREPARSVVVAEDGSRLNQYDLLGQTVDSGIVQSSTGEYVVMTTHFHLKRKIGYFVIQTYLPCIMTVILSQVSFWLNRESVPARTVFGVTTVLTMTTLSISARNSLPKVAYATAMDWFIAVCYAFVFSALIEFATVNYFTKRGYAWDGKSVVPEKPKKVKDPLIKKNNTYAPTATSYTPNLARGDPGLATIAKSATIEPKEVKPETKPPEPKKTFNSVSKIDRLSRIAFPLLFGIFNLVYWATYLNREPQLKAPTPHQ
T1 sequence (P63137 25-512 limits assumed): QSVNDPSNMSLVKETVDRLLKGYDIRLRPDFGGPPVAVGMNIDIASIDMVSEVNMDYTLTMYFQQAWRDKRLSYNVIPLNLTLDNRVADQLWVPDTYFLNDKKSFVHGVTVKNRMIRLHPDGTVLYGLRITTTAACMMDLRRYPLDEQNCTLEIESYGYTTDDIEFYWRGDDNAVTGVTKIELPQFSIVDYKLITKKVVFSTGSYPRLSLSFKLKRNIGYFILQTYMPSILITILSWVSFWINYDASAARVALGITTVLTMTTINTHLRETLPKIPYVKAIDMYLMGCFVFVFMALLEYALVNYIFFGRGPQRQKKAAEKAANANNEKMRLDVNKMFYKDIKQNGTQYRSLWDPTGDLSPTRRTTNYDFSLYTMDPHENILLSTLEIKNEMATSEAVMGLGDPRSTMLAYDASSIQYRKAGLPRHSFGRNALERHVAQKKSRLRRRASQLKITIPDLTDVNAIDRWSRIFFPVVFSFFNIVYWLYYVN
T1 sequence (P22723 39-474 partner): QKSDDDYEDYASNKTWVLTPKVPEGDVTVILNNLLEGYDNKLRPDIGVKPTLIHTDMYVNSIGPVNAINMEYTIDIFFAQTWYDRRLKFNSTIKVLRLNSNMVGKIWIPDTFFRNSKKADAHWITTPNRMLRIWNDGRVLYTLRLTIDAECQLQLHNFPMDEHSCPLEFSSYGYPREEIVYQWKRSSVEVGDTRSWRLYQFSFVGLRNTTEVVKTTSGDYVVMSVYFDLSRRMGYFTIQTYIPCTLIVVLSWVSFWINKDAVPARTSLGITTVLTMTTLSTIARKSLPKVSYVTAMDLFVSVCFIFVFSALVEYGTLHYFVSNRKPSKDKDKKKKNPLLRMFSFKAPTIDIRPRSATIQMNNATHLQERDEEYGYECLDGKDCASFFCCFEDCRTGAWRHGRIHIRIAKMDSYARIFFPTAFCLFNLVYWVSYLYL

## N=c1ccc(-c2ccc(N=Nc3ccccc3)cc2)nn1CCCC(=O)O [azogabazine]
Cerebellar granule cells [1]; 1 μM azogabazine (saturating), dark-adapted
  block of GABA-mediated IPSCs: rapidly blocked all the GABA-mediated IPSCs
Cerebellar granule cells [1]; UV spot directed to soma
  mean IPSC amplitude recovered with UV light: −74 ± 16 pA
Cerebellar granule cells [1]; UV spot on proximal dendrites
  IPSC frequency normalised to 100 μm^2 membrane area: 4.2 ± 0.9 Hz
Cerebellar granule cells [1]; UV spot on proximal dendritic zones
  mean IPSC amplitude recovered with UV light: −41 ± 7 pA
Cerebellar granule cells [1]; UV spot on soma
  IPSC frequency normalised to 100 μm^2 membrane area: 1.8 ± 0.3 Hz
[2]; [6]
  cis isomer fraction: ~ 85%
  trans isomer fraction: 15%
[2]; UV-exposed sample kept in ambient light
  time for UV-established cis:trans ratio to change towards ~25% cis: 75% trans: 2 to 4 h
[2]; [7]
  cis isomer fraction: 25%
  trans isomer fraction: approximately 75%
[2]; long-term darkness, deuterated DMSO
  trans isomer fraction: ~ 100%
α1β2γ2L GABAARs [3]; 1 μM azogabazine co-applied with 10 μM GABA, ambient daylight
  block of GABA current: near complete block
α1β2γ2L GABAARs [3]; HEK293, read-out: GABA current recovery during UV light exposure, % of control GABA current, 1 μM azogabazine (not dark-adapted) + 10 μM GABA, UV light, n = 8
  remaining activity at 1 µM: 64 ± 9%
α1β2γ2L GABAARs [3]; HEK293, 1 μM azogabazine (not dark-adapted) + 10 μM GABA, blue light, n = 8, read-out: GABA current during blue light exposure, % of control
  remaining activity at 1 µM: 6 ± 3%
α1β2γ2L GABAARs [3]; UV pre-exposed azogabazine (365 PE, ~15% trans)
  IC50: 0.104 µM
α1β2γ2L GABAARs [3]; dark-adapted azogabazine (~100% trans), wild-type
  IC50: 0.0211 µM
α1β2γ2L GABAARs [3]; dark-adapted higher than UV pre-exposed
  inhibitory potency of dark-adapted versus UV pre-exposed azogabazine: 5 fold
α1β2γ2L GABAARs [4]
  IC50: 0.0226 µM
  pIC50: 7.65 ± 0.14
Cerebellar granule cells [5]; before UV
  spike frequency: 8.4 ± 3.3 Hz
Cerebellar granule cells [5]; burst firing cells
  burst frequency: 1.1 ± 0.3 Hz
  individual spikes per burst: 11 ± 3
Cerebellar granule cells [5]; UV on proximal dendritic zones, normalised to exposed area, read-out: inhibition of individual spike generation after UV isomerization
  inhibition at 1 µM: 50 ± 17%
Cerebellar granule cells [5]; UV on proximal dendritic zones, read-out: inhibition of spike burst generation after UV isomerization
  inhibition at 1 µM: 60 ± 9%
Cerebellar granule cells [5]; UV on somatic membrane, normalised to exposed area, read-out: inhibition of individual spike generation after UV isomerization
  inhibition at 1 µM: 18 ± 3%
Cerebellar granule cells [5]; UV on somatic membrane, read-out: inhibition of spike burst generation after UV isomerization
  inhibition at 1 µM: 25 ± 3%
